{"source": "paper PMC6270263", "about": "“Factors Influencing the Antifolate Activity of Synthetic Tea-Derived Catechins” (Molecules, 2013)", "key": {"[1]": {"molecular_target": "T1, free recombinant human DHFR (rHDHFR) (Homo sapiens, UniProt P00374)", "T1 construct": "made in house; host or cells: Bombyx mori chrysalides", "T1 sequence (P00374 1-187)": "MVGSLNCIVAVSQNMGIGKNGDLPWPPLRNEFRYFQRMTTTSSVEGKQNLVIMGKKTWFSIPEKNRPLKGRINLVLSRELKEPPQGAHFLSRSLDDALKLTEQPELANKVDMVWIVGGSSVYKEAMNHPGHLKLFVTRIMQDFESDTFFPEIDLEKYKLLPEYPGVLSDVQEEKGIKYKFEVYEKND", "assay": "Binding of polyphenols to free rHDHFR by fluorescence quenching titration", "description": "Natural and synthetic derivatives of tea catechins have shown to be good inhibitors of human DHFR [7, 11, 16, 18]. To determine the ability of natural and synthetic polyphenols to bind DHFR, we performed a structure-activity study by analyzing the binding of these polyphenols to DHFR using fluorescence quenching. Effective binding to free recombinant human DHFR (rHDHFR) was determined by measuring the decrease in enzyme fluorescence that occurs upon the formation of the enzyme-inhibitor complex. […] The dissociation constants of the synthetic compounds were on the same order as those of the natural analogues, indicating the high DHFR binding capacities of these new derivatives.\nThe dissociation constants for the binding of polyphenols to free recombinant human DHFR (rHDHFR) were determined by fluorescence titration in an automatic-scanning FluoroMax-3 (Jobin Ybon, Horiba, Edison, NJ, USA) spectrofluorometer with 1.0 cm light path cells and a 150 W mercury-xenon light source. The formation of a binary complex between the enzyme (2.5 × 10^−7 M) and the ligand (from 0 to 40 µM) was followed by measuring the quenching of the tryptophan fluorescence of the enzyme upon the addition of microliter volumes of a concentrated stock solution of ligand. Experiments were performed at pH 7.5 in a buffer containing 2-(N-morpholino)ethanesulfonic acid (Mes, 0.025 M), sodium acetate (0.025 M), tris(hydroxymethyl)aminomethane (Tris 0.05 M), and NaCl (0.1 M). The temperature was controlled at 25 °C using a Haake D1G circulating bath with a heater and cooler. Fluorescence emission spectra were recorded when the human DHFR fluorescence was excited at 290 nm, and titrations were performed as described elsewhere."}, "[2]": {"molecular_target": "T2, bovine serum albumin (BSA) (Bos taurus, UniProt P02769)", "T2 construct": "purchased Sigma-Aldrich", "T2 sequence (P02769 25-607)": "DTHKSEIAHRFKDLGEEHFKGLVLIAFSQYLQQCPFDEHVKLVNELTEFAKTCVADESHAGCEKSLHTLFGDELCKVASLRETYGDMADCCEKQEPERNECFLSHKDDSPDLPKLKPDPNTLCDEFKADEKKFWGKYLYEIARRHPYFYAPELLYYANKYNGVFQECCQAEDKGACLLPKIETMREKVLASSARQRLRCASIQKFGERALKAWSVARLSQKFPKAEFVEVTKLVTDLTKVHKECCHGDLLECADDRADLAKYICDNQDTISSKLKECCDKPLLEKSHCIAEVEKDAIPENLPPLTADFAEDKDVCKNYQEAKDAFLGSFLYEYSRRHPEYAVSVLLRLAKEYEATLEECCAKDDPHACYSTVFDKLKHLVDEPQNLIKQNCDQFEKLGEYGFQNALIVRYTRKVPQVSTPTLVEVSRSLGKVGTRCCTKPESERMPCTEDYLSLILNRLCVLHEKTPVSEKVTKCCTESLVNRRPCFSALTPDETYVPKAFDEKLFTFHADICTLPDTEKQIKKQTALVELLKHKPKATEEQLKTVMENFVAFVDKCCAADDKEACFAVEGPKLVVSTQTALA", "assay": "BSA binding by fluorescence quenching", "from_the_text": "Upon progressive additions of various concentrations of EGCG and TMCG to BSA, the emission intensity decreases, as shown in Figure 4(a). The quenching of the fluorescence intensity of BSA implies that the catechins bind at close proximity to the tryptophan and tyrosine residues and that the molecular arrangement of BSA is affected by the interactions. […] The binding constants (KA) for the BSA-EGCG and BSA-TMCG complexes are 1.54 × 10^7 M^−1 and 1.9 × 10^5 M^−1, respectively (Table 4), and their plots are shown in Figure 4(b). […] In light of these findings, it can be reasoned that the binding affinity to BSA is higher for the galloylated catechin than for the methylated one, which emphasises that the three phenolic groups can enhance hydrogen bonding between BSA and EGCG [25].\nFluorescence measurements were made on an automatic scanning Perkin-Elmer LS50B spectrofluorometer with 1.0 cm light path cells equipped with a 150 W xenon (XBO) light source. In all experiments, the fluorescence of BSA (5 × 10^−6 M) in 50 mM phosphate buffer of pH 7.5 was followed by excitation at 280 nm. The binding affinities of EGCG and TMCG with BSA in terms of binding constants were determined using the following equation [25]: log (F0−F)/F = log KA + n log [Q](1) where KA is the binding constant, n is the number of binding sites, F0 is the fluorescence intensity of free BSA and F is the consequent fluorescence upon the addition of catechins (Q). A plot of log (F0-F)/F against log [Q] was used to determine the values of KA and n from the intercept and the slope, respectively."}, "[3]": {"assay": "UV-visible absorption spectra at different pH (ionization state)", "format": "physicochemical", "conditions": "UV-visible spectra; pH range 5.0–9.0 for TMCG and TMECG", "description": "It has been shown that the protonation state of methotrexate, trimethoprim, and pyrimethamine modulates the binding of these antifolates to DHFRs from several sources. […] The absorbance maximum at 278 nm undergoes a bathochromic displacement to 328 nm, which is greatest at alkaline pH (pH > 9.0).\nTo determine if the spectral changes in the SYCG and SYECG solutions with pH were due to an irreversible oxidation reaction or to a reversible protonation step, a pH titration experiment was carried out. An alkaline solution of SYCG and SYECG (pH 8.5) was acidified to pH 2.5 by the addition of dilute HCl. A change in the spectra was observed, indicating a reversible protonation reaction. The spectral changes with pH observed in SYCG and SYECG can be attributed to the hydroxyl group para on the ester-bonded gallate moiety. At acidic pH, these derivatives are mainly present as protonated species, whereas at basic pH or values near neutrality, these derivatives evolve toward the deprotonated species, which are stabilized by resonance (Scheme 3). […] As described, an important factor that decreases catechin bioavailability might be their inability to easily cross cellular membranes by passive diffusion. The presence of several hydroxyl groups in these molecules gives them a high hydrophilic character, which increases the difficulty of passing across lipid membranes.\nUltraviolet-visible absorption spectra of catechins at different pHs were recorded on a UV-Vis Perkin-Elmer Lambda-2 spectrophotometer with a spectral bandwidth of 1 nm at a scan speed of 60 nm s^−1. The experiments were performed in the same buffer as described for DHFR binding studies, and the ionic strength remained constant at an optimum value of 0.15 over the pH range that was used. The pH of the reaction was measured before and after the experiment."}}, "note": "Read-outs that look alike come from different tables or passages of the source.", "data": [{"smiles": "COc1cc(C(=O)O[C@H]2Cc3c(O)cc(O)cc3O[C@@H]2c2ccc(O)c(O)c2)cc(OC)c1OC", "note": "[TMCG]", "values": [{"measurement": "Kd", "setting": "[1]; Table 2, restates Table 1, read-out: KD, order of binding strengths to rHDHFR depending on D-ring substitution", "result": 0.9, "unit": "µM"}, {"measurement": "Kd", "setting": "[1]; pH 7.5, 25 °C, fluorescence titration, read-out: Dissociation constant KD of free rHDHFR", "result": "0.9 ± 0.1", "unit": "µM"}, {"measurement": "Kd", "setting": "[2]; 25 °C, pH 7.5, no site marker, read-out: Binding constant (KA) for BSA-catechin complex (converted)", "result": 5.26, "unit": "µM"}, {"measurement": "Number of binding sites n", "setting": "[2]; catechin-BSA complex, double logarithmic plot", "result": "approximately 1"}, {"measurement": "Effect of pH on absorption spectra", "setting": "[3]", "result": "no significant changes"}]}]}
